Test results published in patent publication US12195482B1 (Arcus Biosciences, Inc., priority 2022, dated 2025).

Key:
[1] = target: T1, p-AXL (Homo sapiens, UniProt P30530); assay: Axl phosphorylation inhibition ELISA in HEK293T cells transfected with NanoLuc-tagged AXL; type: cell-based; conditions: 1 h compound incubation, media (OptiMEM)
T1 construct: expressed in transfected cells; host or cells: HEK293T
T1 sequence (P30530 26-894): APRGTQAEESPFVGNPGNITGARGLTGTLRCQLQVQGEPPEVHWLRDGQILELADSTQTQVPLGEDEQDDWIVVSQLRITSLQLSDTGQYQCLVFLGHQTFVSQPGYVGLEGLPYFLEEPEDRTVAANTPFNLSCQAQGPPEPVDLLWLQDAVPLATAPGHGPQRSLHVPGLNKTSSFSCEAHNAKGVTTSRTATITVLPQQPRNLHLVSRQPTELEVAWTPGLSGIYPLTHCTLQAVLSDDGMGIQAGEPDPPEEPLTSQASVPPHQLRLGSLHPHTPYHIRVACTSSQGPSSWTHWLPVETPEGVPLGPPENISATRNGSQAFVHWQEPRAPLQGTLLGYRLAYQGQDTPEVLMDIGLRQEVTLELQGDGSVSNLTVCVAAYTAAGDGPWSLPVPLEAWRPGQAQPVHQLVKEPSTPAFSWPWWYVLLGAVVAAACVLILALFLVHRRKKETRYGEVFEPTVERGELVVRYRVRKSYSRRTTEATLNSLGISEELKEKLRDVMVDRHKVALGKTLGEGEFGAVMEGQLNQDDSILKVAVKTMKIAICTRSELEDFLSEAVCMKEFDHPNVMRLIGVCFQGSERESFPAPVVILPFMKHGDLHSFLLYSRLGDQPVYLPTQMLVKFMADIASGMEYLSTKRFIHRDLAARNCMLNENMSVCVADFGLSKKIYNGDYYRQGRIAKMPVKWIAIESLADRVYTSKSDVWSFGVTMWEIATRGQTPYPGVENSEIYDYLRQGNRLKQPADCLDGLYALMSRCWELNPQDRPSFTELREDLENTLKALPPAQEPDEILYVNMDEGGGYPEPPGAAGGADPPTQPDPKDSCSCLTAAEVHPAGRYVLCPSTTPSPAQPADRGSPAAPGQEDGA
How it was run: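 HEK293T cells transiently transfected one day earlier with NanoLuc-tagged AXL were exposed to 22-point 2-fold compound dilutions for 1 h at 37° C (70,000 cells/well), then lysed. Lysates captured on anti-phospho-tyrosine coated plates for 2 h; bound p-AXL read by NanoLuc luminescence; IC50 from 4-parameter logistic fit.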

[2] = target: T2, Axl (Homo sapiens, UniProt P30530); assay: Biochemical potency, HTRF KinEASE-TK kinase assay; set-up: purchased Invitrogen; conditions: 5 nM AXL, 700 μM ATP
T2 sequence (P30530 26-894): T1 sequence (P30530 26-894)
How it was run: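 Phosphorylation of a biotinylated tyrosine-kinase peptide (800 nM) by AXL (5 nM) or TYRO3/MER (1 nM) is measured at 700 µM ATP after 2 h at room temperature, following 1 h enzyme–compound preincubation. Signal is the time-resolved FRET ratio, converted to percent activity.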

IC50 [1]	IC50 [2]	Compound
< 100 nM	< 100 nM	CN(C)C(=O)c1ccccc1-c1ccc(-c2n[nH]c3ncc(-c4ccc5c(c4)CC[C@@H](N4C6COCC4C6)CC5)cc23)cc1 [Example 12, N,N-Dimethyl-4′-{5-[(7S)-7-{3-oxa-6-azabicyclo[3.1.1]heptan-6-yl}-6,7,8,9-tetrahydro-5H-benzo[7]annulen-2-yl]-2H-pyrazolo[3,4-b]pyridin-3-yl}-[1,1′-biphenyl]-2-carboxamide]
100 to 1000 nM	< 100 nM	Cc1ccnc(-c2ccc(-c3n[nH]c4ncc(-c5ccc6c(c5)CC[C@@H](N5C7COCC5C7)CC6)cc34)cc2)c1 [Example 117, 6-[(7S)-2-{3-[4-(4-Methylpyridin-2-yl)phenyl]-1H-pyrazolo[3,4-b]pyridin-5-yl}-6,7,8,9-tetrahydro-5H-benzo[7]annulen-7-yl]-3-oxa-6-azabicyclo[3.1.1]heptane]
< 100 nM	< 100 nM	O=C1CCCN1c1cccnc1-c1ccc(-c2n[nH]c3ncc(-c4ccc5c(c4)CC[C@@H](N4C6COCC4C6)CC5)cc23)cc1 [Example 177, 1-[2-(4-{5-[(7S)-7-{3-Oxa-6-azabicyclo[3.1.1]heptan-6-yl}-6,7,8,9-tetrahydro-5H-benzo[7]annulen-2-yl]-1H-pyrazolo[3,4-b]pyridin-3-yl}phenyl)pyridin-3-yl]pyrrolidin-2-one]
100 to 1000 nM	< 100 nM	Cc1cc(-c2n[nH]c3ncc(-c4ccc5c(c4)CC[C@@H](N4C6COCC4C6)CC5)cc23)ccc1-c1ccccn1 [Example 159, 6-[(7S)-2-{3-[3-Methyl-4-(pyridin-2-yl)phenyl]-2H-pyrazolo[3,4-b]pyridin-5-yl}-6,7,8,9-tetrahydro-5H-benzo[7]annulen-7-yl]-3-oxa-6-azabicyclo[3.1.1]heptane]
< 100 nM	< 100 nM	Cc1cccnc1-c1ccc(-c2n[nH]c3ncc(-c4ccc5c(c4)CC[C@@](C)(N4CCC[C@H]4C)CC5)cc23)nc1 [Example 105, 3-Methyl-6′-{5-[(7S)-7-methyl-7-[(2R)-2-methylpyrrolidin-1-yl]-6,7,8,9-tetrahydro-5H-benzo[7]annulen-2-yl]-1H-pyrazolo[3,4-b]pyridin-3-yl}-2,3′-bipyridine]
100 to 1000 nM	< 100 nM	CN(C)C(=O)c1ccccc1-c1ccc(-c2c[nH]c3ncc(-c4ccc5c(c4)CC[C@@H](N4C6COCC4C6)CC5)cc23)cn1 [Example 170, N,N-Dimethyl-2-(5-{5-[(7S)-7-{3-oxa-6-azabicyclo[3.1.1]heptan-6-yl}-6,7,8,9-tetrahydro-5H-benzo[7]annulen-2-yl]-1H-pyrrolo[2,3-b]pyridin-3-yl}pyridin-2-yl)benzamide]
100 to 1000 nM	< 100 nM	Cn1nncc1-c1ccc(-c2n[nH]c3ncc(-c4ccc5c(c4)CC[C@@H](N4C6COCC4C6)CC5)cc23)cc1 [Example 13, 6-[(7S)-2-{3-[4-(1-Methyl-1H-1,2,3-triazol-5-yl)phenyl]-1H-pyrazolo[3,4-b]pyridin-5-yl}-6,7,8,9-tetrahydro-5H-benzo[7]annulen-7-yl]-3-oxa-6-azabicyclo[3.1.1]heptane]
< 100 nM	< 100 nM	CC(C)(O)c1cccnc1-c1ccc(-c2n[nH]c3ncc(-c4ccc5c(c4)CC[C@@H](N4C6COCC4C6)CC5)cc23)cc1 [Example 10, 2-[2-(4-{5-[(7S)-7-{3-Oxa-6-azabicyclo[3.1.1]heptan-6-yl}-6,7,8,9-tetrahydro-5H-benzo[7]annulen-2-yl]-1H-pyrazolo[3,4-b]pyridin-3-yl}phenyl)pyridin-3-yl]propan-2-ol]
100 to 1000 nM	< 100 nM	c1cncc(-c2ccc(-c3c[nH]c4ncc(-c5ccc6c(c5)CC[C@@H](N5C7COCC5C7)CC6)cc34)cc2)c1 [Example 158, 6-[(7S)-2-{3-[4-(Pyridin-3-yl)phenyl]-1H-pyrrolo[2,3-b]pyridin-5-yl}-6,7,8,9-tetrahydro-5H-benzo[7]annulen-7-yl]-3-oxa-6-azabicyclo[3.1.1]heptane]
100 to 1000 nM	< 100 nM	c1ccc(-c2ccc(-c3c[nH]c4ncc(-c5ccc6c(c5)CC[C@@H](N[C@H]5CCCOC5)CC6)cc34)cc2)nc1 [Example 32, (3S)—N-[(7S)-3-[3-(4-Pyridin-2-ylphenyl)-1H-pyrrolo[2,3-b]pyridin-5-yl]-6,7,8,9-tetrahydro-5H-benzo[7]annulen-7-yl]oxan-3-amine]
< 100 nM	< 100 nM	OC1(c2cccnc2-c2ccc(-c3c[nH]c4ncc(-c5ccc6c(c5)CC[C@@H](N5C7COCC5C7)CC6)cc34)cc2)CCC1 [Example 22, 1-[2-[4-[5-[(7S)-7-(3-Oxa-6-azabicyclo[3.1.1]heptan-6-yl)-6,7,8,9-tetrahydro-5H-benzo[7]annulen-3-yl]-1H-pyrrolo[2,3-b]pyridin-3-yl]phenyl]pyridin-3-yl]cyclobutan-1-ol]
100 to 1000 nM	< 100 nM	O=C(c1cccnc1-c1ccc(-c2n[nH]c3ncc(-c4ccc5c(c4)CC[C@@H](N4C6COCC4C6)CC5)cc23)cc1)N1CCCC1 [Example 4, 6-[(7S)-2-(3-{4-[3-(Pyrrolidine-1-carbonyl)pyridin-2-yl]phenyl}-1H-pyrazolo[3,4-b]pyridin-5-yl)-6,7,8,9-tetrahydro-5H-benzo[7]annulen-7-yl]-3-oxa-6-azabicyclo[3.1.1]heptane]
< 100 nM	< 100 nM	CC(C)(C#N)c1cccnc1-c1ccc(-c2c[nH]c3ncc(-c4ccc5c(c4)CC[C@@H](N4C6COCC4C6)CC5)cc23)cc1 [Example 21, 2-Methyl-2-[2-[4-[5-[(7S)-7-(3-oxa-6-azabicyclo[3.1.1]heptan-6-yl)-6,7,8,9-tetrahydro-5H-benzo[7]annulen-3-yl]-1H-pyrrolo[2,3-b]pyridin-3-yl]phenyl]pyridin-3-yl]propanenitrile]
100 to 1000 nM	< 100 nM	c1cnc(-c2ccc(-c3n[nH]c4ncc(-c5ccc6c(c5)CC[C@@H](N5C7COCC5C7)CC6)cc34)cc2)c(C2CC2)c1 [Example 179, 6-[(7S)-2-{3-[4-(3-Cyclopropylpyridin-2-yl)phenyl]-1H-pyrazolo[3,4-b]pyridin-5-yl}-6,7,8,9-tetrahydro-5H-benzo[7]annulen-7-yl]-3-oxa-6-azabicyclo[3.1.1]heptane]
< 100 nM	< 100 nM	Cn1ncnc1-c1ccc(-c2n[nH]c3ncc(-c4ccc5c(c4)CC[C@@H](N4C6COCC4C6)CC5)cc23)cc1 [Example 110, 6-[(7S)-2-{3-[4-(1-Methyl-1H-1,2,4-triazol-5-yl)phenyl]-2H-pyrazolo[3,4-b]pyridin-5-yl}-6,7,8,9-tetrahydro-5H-benzo[7]annulen-7-yl]-3-oxa-6-azabicyclo[3.1.1]heptane]
< 100 nM	< 100 nM	Cc1nccnc1-c1ccc(-c2n[nH]c3ncc(-c4ccc5c(c4)CC[C@@H](N4C6COCC4C6)CC5)cc23)cc1 [Example 175, 6-[(7S)-2-{3-[4-(3-Methylpyrazin-2-yl)phenyl]-1H-pyrazolo[3,4-b]pyridin-5-yl}-6,7,8,9-tetrahydro-5H-benzo[7]annulen-7-yl]-3-oxa-6-azabicyclo[3.1.1]heptane]
< 100 nM	< 100 nM	Cc1ccnnc1-c1ccc(-c2n[nH]c3ncc(-c4ccc5c(c4)CC[C@@H](N4C6COCC4C6)CC5)cc23)cc1 [Example 176, 6-[(7S)-2-{3-[4-(4-Methylpyridazin-3-yl)phenyl]-1H-pyrazolo[3,4-b]pyridin-5-yl}-6,7,8,9-tetrahydro-5H-benzo[7]annulen-7-yl]-3-oxa-6-azabicyclo[3.1.1]heptane]
< 100 nM	< 100 nM	Cn1nccc1-c1ccc(-c2n[nH]c3ncc(-c4ccc5c(c4)CC[C@@H](N4C6COCC4C6)CC5)cc23)cc1 [Example 109, 6-[(7S)-2-{3-[4-(1-Methyl-1H-pyrazol-5-yl)phenyl]-1H-pyrazolo[3,4-b]pyridin-5-yl}-6,7,8,9-tetrahydro-5H-benzo[7]annulen-7-yl]-3-oxa-6-azabicyclo[3.1.1]heptane]
100 to 1000 nM	< 100 nM	Cc1ccccc1-c1ccc(-c2n[nH]c3ncc(-c4ccc5c(c4)CC[C@@H](N4C6COCC4C6)CC5)cc23)nc1 [Example 98, 6-[(7S)-2-{3-[5-(2-Methylphenyl)pyridin-2-yl]-1H-pyrazolo[3,4-b]pyridin-5-yl}-6,7,8,9-tetrahydro-5H-benzo[7]annulen-7-yl]-3-oxa-6-azabicyclo[3.1.1]heptane]
